From patent US9060997B2, “Antifolate compounds for the treatment of melanoma” (UNIVERSIDAD DE MURCIA, priority 2007, dated 2015)

Key:
FRα mRNA = experiment: FRα expression in SkMel-28 (real-time PCR, RT-PCR); type: cell-based, human; conditions: SkMel-28, 50 μM
Method: PolyA+ mRNA from human adult skin was purchased from Invitrogen. SkMel-28 and HEM polyA+ mRNA was extracted from 5×10^6 cells using the Illustra Quick Prep Micro mRNA purification kit (GE Healthcare). mRNA (200 ng) was used to synthesize cDNA using SuperScript First-Strand Synthesis System (Invitrogen). PCR amplification of 2 μL of the cDNA strand generated was carried out in a total volume of 50 μL using an Eppendorf Mastercycler Thermal Cycler. Samples were amplified by 40 cycles at 95° C. (1 min), 62° C. (1 min) and 72° C. (1 min). The amplified PCR products were subjected to electrophoresis in 3% agarose gel and stained with ethidium bromide.
Primers were designer using Primer Express version 2.0 software (Applied Biosystems, Foster City, Calif.) and synthesized by Invitrogen. […] Amplification of target gene sequences were compared against serial dilutions of know quantities of their purified cDNA fragments, and normalized to the abundance of the house-keeping gene β-actin.

[1] = tested on: Caco-2 and SkMel-28 cells; experiment: Cellular uptake of ECG, TMECG and QM; type: in vitro ADME, human; conditions: 50 μM catechins
Method: Cellular uptake was determined by the difference between the initial concentration of catechin and the calculated at specific times in the cellular medium, and expressed as a percentage of catechin at zero time. The values presented are the mean percentage determined from five independent experiments±SD.
For cellular uptake experiments Caco-2 and SkMel-28 cells were grown until reaching 90% confluence. Then, 20 ml of cellular medium containing 50 μM catechins and 0.2 mM ascorbic acid was added and incubated for 60 h in a CO2 incubator. At specified times 1 ml-aliquots were taken and frozen in liquid N2 until the catechin concentrations were determined by HPLC. Catechins were identified by their characteristic elution times and their concentration calculated with respect to calibration curves of known concentrations of catechins.

Caspase-3 = Caspase-3 colorimetric activity assay; type: cell-based, human; conditions: SkMel-28, 50 μM, 7 days
Method: Cells were treated for 7 days with 50 μM TMECG. Caspase-3 activity was determined in the absence or the presence of […]. The results are expressed as the mean±SD of three cultures.
Caspase-3 activity in the SkMel-28 cells was measured using the caspase-3 colorimetric activity assay kit (Sigma). Briefly, the cells were washed with cold PBS and lysed with cell lysis buffer included in the kit. The cell lysates were centrifuged (10,000 g for 5 min at 4° C.), and the supernatants were collected. Equal amounts of protein (100 μg), 30 μg of colorimetric caspase-3 substrate (acetyl-Asp-Glu-Val-Asp p-Nitroanilide; Ac-[…]-pNA) and assay buffer were added to each reaction mix, which were then incubated for 4 h at 37° C. Caspase-3 activity was determined by measuring the absorbance at 405 nm. One unit of caspase-3 activity was expressed as 1 pmol of pNA formed per hour, and its specific activity was that unit divided by micrograms of protein. Caspase-3 inhibitor ([…]) was used as negative control.

DHFR mRNA and protein = experiment: DHFR mRNA (real-time PCR) and protein in SkMel-28; type: cell-based, human; conditions: SkMel-28, 50 μM
Method: Data were obtained by real time PCR and compared with the relative expression of DHFR in HeM cells (zero relative gene expression). Zero time represents the level of DHFR in untreated SkMel-28 cells.
cDNA samples (1 μL) were used for real-time PCR in a total volume of 20 μL using SYBR Green Reagent (Applied Biosystems) and specific primers on a 7500 Real Time PCR System of Applied Biosystems. The PCR amplification cycles included denaturation 95° C., 15 min; to activate HotStar Taq DNA polymerase and to minimize primer-dimer contribution), and amplification [over 40-50 cycles including denaturation (94° C.; 30 s), annealing (55° C.; 30 s), and extension (72° C.; 1 min)]. All PCR reactions were performed in triplicate and from at least two independent experiments. Non-RT control and negative control samples (without template) were processed in the same manner. […] Amplification of target gene sequences were compared against serial dilutions of know quantities of their purified cDNA fragments, and normalized to the abundance of the house-keeping gene β-actin.
Protein lysates were prepared from specified cells, separated by SDS-polyacrylamide gel electrophoresis (PAGE), transferred to nitrocellulose membranes, and analyzed by immunoblotting. […] Bound antibodies were detected by chemiluminiscence (ECL Plus, GE Healthcare). […]

With `COc1cc(C(=O)O[C@@H]2Cc3c(O)cc(O)cc3O[C@@H]2c2ccc(O)c(O)c2)cc(OC)c1OC` [TMECG, 3-O-(3,4,5-trimethoxybenzoyl)-(−)-epicatechin] the “mature FRα mRNA (RT-PCR)” value (FRα mRNA; 3 days) was “partially restored the levels of mature FRα mRNA”, the “FRα expression (exon 5 region, real-time PCR)” value (FRα mRNA; 5 days of treatment) was “no apparent effect on its expression” and the “cellular uptake / membrane transport” value [1] was “greater than the uptake of its related natural catechin, ECG”. For the same molecule, the caspase-3 activity (Caspase-3) was “significantly higher caspase-3 activity” and the “DHFR mRNA and protein level” value (DHFR mRNA and protein) was “reduced DHFR mRNA and protein to normal levels”.
